One block for each compound: values may come before it.
Tests used:
MRE11 = MRE11 (Homo sapiens (Human), UniProt P49959); assay: HTS nuclease assay (fluorescence-quenched 5′ overhang DNA substrate cleavage); type: biochemical; conditions: 18 nM MRE11, 40 nM DNA substrate, analysis at t=4 h
Experimental: DNA Substrate Preparation
The DNA substrate is prepared by mixing the oligonucleotides listed below in a 1:1 ratio to reach a final concentration of 6 μM in a buffer containing 50 mM Tris pH 7.5, 100 mM NaCl and 8 mM MgCl2.
The mixture is heat for 3 min at 65° C. and let to cool down slowly to RT. Then it is stored at −20° C.
This substrate is a 5′ overhang, which is a preferred substrate of MRE11. […] The fluorescence increases upon substrate cleavage by MRE11, when separation of the two labels occur.
The conditions of the assay are as follows:
Total reaction volume: 5 μL
DNA substrate concentration in the reaction: 40 nM
Inhibitor concentration range tested: 7 nM-50 μM
Each plate contains a series of high and low signal control wells, where no compound is added:
High signal: MRE11+DNA substrate
Low signal: DNA substrate only
These are used during data evaluation.
Two Extra Assay Controls:
1) To check whether unwinding of DNA by the compounds alone occurs.
The DNA substrate [CY5+BBQ(650)] is mixed with the compounds with no protein present.
The CY5 single stranded oligo is mixed with the compounds with no protein present.
The layout of the plates is created by the in-house software (CZ-Openscreen Prague) and this information is transferred to the robotic HTS station.
The reaction is started by the addition of DNA and the reaction time is counted from that moment, including a 15 min delay. Ten timepoints are measured:
The assay data analysis was performed at t=4 h. This corresponds to the time when the reaction is close to its maximum.
The data analysis was performed using the in-house software (CZ-Openscreen Prague) to obtain IC50 for each compound.

DR-GFP U2OS cells = assay: HR assay (GFP fluorescence by flow cytometry after I-SceI transfection); type: cell-based; conditions: Homo sapiens, 25 μM inhibitor, 72 hours after transfection
Experimental: DR-GFP U2OS cells (Methods in Molecular Biology 2012, 920, 379.) were transfected with 2.5 μg of I-SceI-expressing pCAGGS vector and treated with the inhibitors at 25 μM concentration. 72 hours after the transfection, the cells were trypsinized and resuspended in 3% BSA in PBS. GFP fluorescence detection was carried out using a BD FACSVerse flow cytometer and data analyzed with FlowJo software.

[1] = test system: Phosphorylated RPA32 S4/S8 in U2OS cells; assay: RPA assay (camptothecin-induced RPA phosphorylation); type: cell-based; conditions: Homo sapiens, 1 h pre-treatment, 1 uM camptothecin 1 h; for inhibition at 10 µM: 10 μM inhibitor
Experimental: U2OS cells were pre-treated for 1 h with MRE11 inhibitors followed by addition of 1 uM camptothecin for 1 h. Cells were lysed in SDS-PAGE loading buffer, sonicated and boiled at 70° C. for 10 min. Equal amounts of protein (50-100 μg) were analysed by Tris-glycine gel electrophoresis Expression levels were quantified using Multi Gauge software and expressed relative to loading control. Phosphorylated RPA32 S4/S8 (A300-245A, Bethyl Laboratories) 1:1000 dilution was used.

Sequence of MRE11 (P49959 whole entry): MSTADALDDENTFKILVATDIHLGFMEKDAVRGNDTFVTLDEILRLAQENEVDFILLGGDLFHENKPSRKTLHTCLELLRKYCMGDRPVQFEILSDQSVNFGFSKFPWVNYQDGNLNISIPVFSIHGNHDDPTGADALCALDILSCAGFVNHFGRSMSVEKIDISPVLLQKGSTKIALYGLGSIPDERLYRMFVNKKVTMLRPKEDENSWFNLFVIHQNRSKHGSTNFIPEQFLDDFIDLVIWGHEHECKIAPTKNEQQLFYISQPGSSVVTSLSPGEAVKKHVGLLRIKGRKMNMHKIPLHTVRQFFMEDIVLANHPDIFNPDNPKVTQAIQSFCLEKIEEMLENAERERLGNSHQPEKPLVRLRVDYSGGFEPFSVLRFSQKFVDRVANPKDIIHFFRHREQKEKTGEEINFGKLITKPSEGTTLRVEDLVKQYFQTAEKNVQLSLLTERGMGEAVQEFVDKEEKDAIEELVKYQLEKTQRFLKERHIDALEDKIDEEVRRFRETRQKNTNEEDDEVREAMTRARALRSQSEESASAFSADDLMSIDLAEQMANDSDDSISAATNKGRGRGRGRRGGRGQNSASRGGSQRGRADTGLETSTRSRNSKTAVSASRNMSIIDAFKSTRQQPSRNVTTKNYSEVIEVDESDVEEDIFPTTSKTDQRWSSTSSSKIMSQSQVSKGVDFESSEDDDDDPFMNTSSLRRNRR

SMILES: N#CC(Cc1ccc(O)c(O)c1)C(=O)Nc1nc(-c2ccc(Br)cc2)cs1 (centres unmarked) [Preparative Example 129, N-(4-(4-bromophenyl)thiazol-2-yl)-2-cyano-3-(3,4-dihydroxyphenyl)propanamide]
IC50 (MRE11): 2 to 10 µM | inhibition at 25 µM (DR-GFP U2OS cells): > 75% | inhibition at 10 µM [1]: 60%

SMILES: CC(C)(C)c1cc(CC(C#N)C(=O)Nc2nc(-c3ccccc3)cs2)cc(C(C)(C)C)c1O (centres unmarked) [Preparative Example 139, 2-cyano-3-(3,5-di-tert-butyl-4-hydroxyphenyl)-N-(4-phenylthiazol-2-yl)propanamide]
inhibition at 25 µM (DR-GFP U2OS cells): > 75% | inhibition at 10 µM [1]: 70%

SMILES: CC(C)(C)c1ccc(-c2csc(NC(=O)C(C#N)Cc3ccc(O)c(O)c3)n2)cc1 (centres unmarked) [Preparative Example 140, N-(4-(4-(tert-butyl)phenyl)thiazol-2-yl)-2-cyano-3-(3,4-dihydroxyphenyl)propanamide]
IC50 (MRE11): 2 to 10 µM | inhibition at 25 µM (DR-GFP U2OS cells): > 75% | inhibition at 10 µM [1]: 40%

SMILES: N#CC(Cc1ccc(O)c(O)c1)C(=O)Nc1nc(-c2ccc(OC(F)(F)F)cc2)cs1 (centres unmarked) [Preparative Example 136, 2-cyano-3-(3,4-dihydroxyphenyl)-N-(4-(4-(trifluoromethoxy)phenyl)thiazol-2-yl)propanamide]
IC50 (MRE11): 2 to 10 µM | inhibition at 25 µM (DR-GFP U2OS cells): > 75% | inhibition at 10 µM [1]: 40%

SMILES: N#CC(Cc1cc(Cl)c(O)c(Cl)c1)C(=O)Nc1nc(-c2ccc(OC(F)(F)F)cc2)cs1 (centres unmarked) [Preparative Example 137, 2-cyano-3-(3,5-dichloro-4-hydroxyphenyl)-N-(4-(4-(trifluoromethoxy)phenyl)thiazol-2-yl)propanamide]
IC50 (MRE11): 2 to 10 µM | inhibition at 25 µM (DR-GFP U2OS cells): < 50%

SMILES: N#CC(Cc1ccc(O)c(O)c1)C(=O)Nc1nc(-c2ccsc2)cs1 (centres unmarked) [Preparative Example 145, 2-cyano-3-(3,4-dihydroxyphenyl)-N-(4-(thiophen-3-yl)thiazol-2-yl)propanamide]
IC50 (MRE11): 2 to 10 µM | inhibition at 25 µM (DR-GFP U2OS cells): < 50%

SMILES: N#CC(Cc1cc(Cl)c(O)c(Cl)c1)C(=O)Nc1nc(-c2ccc3ccccc3c2)cs1 (centres unmarked) [Preparative Example 143, 2-cyano-3-(3,5-dichloro-4-hydroxyphenyl)-N-(4-(naphthalen-2-yl)thiazol-2-yl)propanamide]
IC50 (MRE11): 2 to 10 µM | inhibition at 25 µM (DR-GFP U2OS cells): < 50%

SMILES: N#CC(Cc1ccc(O)c(O)c1)C(=O)Nc1nc(-c2cccc(Cl)c2)cs1 (centres unmarked) [Preparative Example 162, N-(4-(3-chlorophenyl)thiazol-2-yl)-2-cyano-3-(3,4-dihydroxyphenyl)propanamide]
IC50 (MRE11): 2 to 10 µM | inhibition at 25 µM (DR-GFP U2OS cells): 50 to 75%

SMILES: N#Cc1ccc(-c2csc(NC(=O)C(C#N)Cc3ccc(O)c(O)c3)n2)cc1 (centres unmarked) [Preparative Example 131, 2-cyano-N-(4-(4-cyanophenyl)thiazol-2-yl)-3-(3,4-dihydroxyphenyl)propanamide]
IC50 (MRE11): 2 to 10 µM | inhibition at 25 µM (DR-GFP U2OS cells): 50 to 75%

SMILES: N#CC(Cc1ccc(O)c(O)c1)C(=O)Nc1nc(-c2cc(Cl)sc2Cl)cs1 (centres unmarked) [Preparative Example 175, 2-cyano-N-(4-(2,5-dichlorothiophen-3-yl)thiazol-2-yl)-3-(3,4-dihydroxyphenyl)propanamide]
IC50 (MRE11): 2 to 10 µM | inhibition at 25 µM (DR-GFP U2OS cells): 50 to 75%

SMILES: Cc1cc(CC(C#N)C(=O)Nc2nc(-c3ccccc3)cs2)cc(C)c1O (centres unmarked) [Preparative Example 147, 2-cyano-3-(4-hydroxy-3,5-dimethylphenyl)-N-(4-phenylthiazol-2-yl)propanamide]
IC50 (MRE11): 10 to 90 µM | inhibition at 25 µM (DR-GFP U2OS cells): 50 to 75%

More lines, main results first:

IC50 (MRE11): < 2 µM
SMILES: N#CC(Cc1ccc(O)c(O)c1Br)C(=O)Nc1nc(-c2ccccc2)cs1 (centres unmarked) [Preparative Example 148, 3-(2-bromo-3,4-dihydroxyphenyl)-2-cyano-N-(4-phenylthiazol-2-yl)propanamide]
inhibition at 25 µM (DR-GFP U2OS cells): > 75% | inhibition at 25 µM ([1]; 25 μM inhibitor): 90%

IC50 (MRE11): < 2 µM
SMILES: Cc1ccc(-c2sc(NC(=O)C(C#N)Cc3ccc(O)c(O)c3)nc2-c2ccccc2)cc1 (centres unmarked) [Preparative Example 135, 2-cyano-3-(3,4-dihydroxyphenyl)-N-(4-phenyl-5-(p-tolyl)thiazol-2-yl)propanamide]
inhibition at 25 µM (DR-GFP U2OS cells): > 75%

IC50 (MRE11): < 2 µM
SMILES: COc1ccc(-c2csc(NC(=O)C(C#N)Cc3ccc(O)c(O)c3)n2)c(F)c1 (centres unmarked) [Preparative Example 173, 2-cyano-3-(3,4-dihydroxyphenyl)-N-(4-(2-fluoro-4-methoxyphenyl)thiazol-2-yl)propanamide]
inhibition at 25 µM (DR-GFP U2OS cells): > 75%

IC50 (MRE11): < 2 µM
SMILES: N#CC(Cc1ccc(O)c(O)c1)C(=O)Nc1nc(-c2cc(C(F)(F)F)ccn2)cs1 (centres unmarked) [Preparative Example 174, 2-cyano-3-(3,4-dihydroxyphenyl)-N-(4-(4-(trifluoromethyl)pyridin-2-yl)thiazol-2-yl)propanamide]
inhibition at 25 µM (DR-GFP U2OS cells): > 75%

IC50 (MRE11): < 2 µM
SMILES: N#CC(Cc1ccc(O)c(O)c1)C(=O)Nc1nc(-c2ncccc2F)cs1 (centres unmarked) [Preparative Example 172, 2-cyano-3-(3,4-dihydroxyphenyl)-N-(4-(3-fluoropyridin-2-yl)thiazol-2-yl)propanamide]
inhibition at 25 µM (DR-GFP U2OS cells): > 75%

IC50 (MRE11): < 2 µM
SMILES: Cc1ccc(-c2csc(NC(=O)C(C#N)Cc3ccc(O)c(O)c3)n2)nc1 (centres unmarked) [Preparative Example 165, 2-cyano-3-(3,4-dihydroxyphenyl)-N-(4-(5-methylpyridin-2-yl)thiazol-2-yl)propanamide]
inhibition at 25 µM (DR-GFP U2OS cells): > 75%
